pKi: −log10 of the molar value. Entries after “also recorded” stand apart in the source; their conditions may differ. Like-named read-outs stand apart in the source and are kept apart here.
Tests used:
factor Xa [1] = test: Determining the inhibitor constants (Ki, Dixon), factor Xa; type: biochemical, bovine or human
Description: (§1) The measurements were carried out at 25° C. on a microplate reader (MR 5000, Dynatech, Denkendorf, Germany). The test medium consisted of 200 μl of Tris buffer (0.05 M; 0.154 M NaCl, 5% ethanol, pH 8.0), 25 μl of aqueous substrate solution and 50 μl of enzyme solution. Two concentrations of the substrate and five concentrations of the inhibitor were used. Three minutes after adding the enzyme, 25 μl of acetic acid (50%) were added in order to quench the reaction and the optical density was measured at 405 nm. The Ki values were calculated in accordance with Dixon (M. Dixon (1953), Biochem. J. 55, 170–171) using a linear regression. The Ki values given in FIGS. 2 and 3 are means of at least three determinations.
(§2) The following enzymes and the corresponding substrates were used at the given final concentrations: bovine thrombin, prepared in accordance with Walsmann (P. Walsmann (1968), Pharmazie 23, 401–402) (2 262 U/mg, final concentration 0.45 U/ml), substrate MeSO2-D-hexahydrotyrosyl-Gly-Arg-pNA (final concentration 0.18 and 0.09 mM); bovine factor Xa (5 U/vial, 0.11 U/ml; Diagnostic Reagents Ltd., Thame, UK), substrate MeSO2-D-Nle-Gly-Arg-pNA (0.36 and 0.18 mM); human factor Xa (0.18 μg/ml; Kordia Lab. Supplies, Leiden, Netherlands), substrate as for bovine factor Xa human plasmin (0.67 CTA U/mg, 0.06 CTA U/ml; Behringwerke AG, Marburg, Germany), substrate Tos-Gly-Pro-Lys-pNA (0.18 and 0.09 mM); human uPA (500 000 U/vial, final concentration 150 U/ml; Ribosepharm GmbH Haan, Germany), substrate Bz-βAla-Gly-Arg-pNA (0.18 and 0.09 mM); bovine pancreas trypsin (42 U/mg, 0.0038 U/ml; Serva, Heidelberg, Germany), substrate MeSO2-D-hexahydrotyrosyl-Gly-Arg-pNA (0.18 and 0.06 mM).

bovine thrombin = target: T1, bovine thrombin (Bos taurus, UniProt P00735); test: Determining the inhibitor constants, thrombin; type: biochemical
T1 construct: converts the zymogen prothrombin into its active form thrombin; made in house
Description: as §1, with “determinations. […]” for “determinations.”

human uPA = target: T2, human uPA (Homo sapiens, UniProt P00749); test: Determining the inhibitor constants, uPA; type: biochemical
T2 construct: purchased Ribosepharm GmbH Haan, Germany
Description: as §1, §2

bovine pancreas trypsin = target: T3, bovine pancreas trypsin (Bos taurus, UniProt P00760); test: Determining the inhibitor constants, trypsin; type: biochemical
T3 construct: purchased Serva, Heidelberg, Germany; host or cells: bovine pancreas
T3 sequence (P00760 24-246): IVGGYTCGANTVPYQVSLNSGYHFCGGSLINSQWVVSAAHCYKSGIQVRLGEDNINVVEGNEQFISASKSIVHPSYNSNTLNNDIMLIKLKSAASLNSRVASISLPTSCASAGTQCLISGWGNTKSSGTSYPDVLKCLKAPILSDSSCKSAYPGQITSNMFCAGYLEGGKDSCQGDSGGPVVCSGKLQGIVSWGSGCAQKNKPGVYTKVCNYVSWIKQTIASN
Description: as §1, §2

factor Xa [2] = target: T4, factor Xa (UniProt P00743); test: Determining the inhibitor constants (Ki, Dixon), factor Xa; type: biochemical, bovine or human; details: for pKi: 25° C., pH 8.0, species of factor Xa not given
T4 construct: Ki factor Xa; other: 25° C., pH 8.0; factor Xa activity of the D-enantiomer relative to the L-enantiomer 27; other: compound 28 versus compound 27; other: relative to compound 31
Description: as §1, §2

factor Xa [3] = details: prior art, Gabriel et al. 1998; cited from earlier work
[4] = Chemical and enzymic stability, stability towards acids; type: physicochemical; details: for example stomach acids

| Compound | inhibitory effect on factor Xa (in words) (factor Xa [1]) | inhibition of uPA (in words) (human uPA) | inhibition of / affinity for trypsin (in words) (bovine pancreas trypsin) | also measured |
| --- | --- | --- | --- | --- |
| COC(=O)C(Cc1ccc(NC(=N)N)cc1)NC(=O)OC12CC3CC(CC(C3)C1)C2.Cl (racemic) [Compound 26, N-1-adamantyloxycarbonyl-D,L-4-guanidinophenylalanine methyl ester hydrochloride] | dramatic loss in inhibitory activity | dramatic loss in inhibitory activity | dramatic loss in inhibitory activity | inhibition of thrombin (in words) (bovine thrombin): dramatic loss in inhibitory activity |
| COC(=O)C(Cc1cccc(C(=N)N)c1)NC(=O)OC12CC3CC(CC(C3)C1)C2.Cl (racemic) [Compound 11, N-1-adamantyloxycarbonyl-D,L-3-amidinophenylalanine methyl ester hydrochloride] |  |  |  | selectivity for factor Xa vis-à-vis uPA, thrombin and trypsin (factor Xa [1]): remarkable selectivity; inhibitory effect on factor Xa (in words) (factor Xa [1]; hydrochloride): significantly increased inhibitory effect; also recorded: submicromolar inhibition |
| Cl.N=C(N)c1cccc(C[C@@H](NC(=O)OC23CC4CC(CC(C4)C2)C3)C(=O)NCCc2ccccc2)c1 [Compound 31, N-1-adamantyloxycarbonyl-D-3-amidinophenylalanine-(2-phenyl)-1-ethylamine hydrochloride] |  |  |  | inhibitory effect on factor Xa (in words) (factor Xa [1]; hydrochloride): strongest inhibitor; inhibitory effect on factor Xa (in words) (factor Xa [1]; listed as N-1-adamantyloxycarbonyl-D-3-amidinophenylalanine-(2-phenyl)-1-ethylamide, hydrochloride): very powerful inhibitory effect; pKi (factor Xa [2]): 7.13 |
| CCOC(=O)C(Cc1ccc(C(=N)N)cc1)NC(=O)CNS(=O)(=O)c1ccc(C(=N)N)cc1 (racemic) [Compound 2, N^α-4-amidinobenzenesulfonylglycyl-D,L-4-amidinophenylalanine ethyl ester] |  |  |  | pKi (factor Xa [3]): 6.30 |
| COC(=O)C(Cc1cccc(C(=N)N)c1)NC(=O)NC12CC3CC(CC(C3)C1)C2.Cl (racemic) [Compound 12, N-1-adamantylaminocarbonyl-D,L-3-amidinophenylalanine methyl ester hydrochloride] |  | dramatic effects on the inhibition of uPA |  | stability (acids; chemical and enzymic) [4]: desirable stability towards acids |
| COC(=O)[C@H](Cc1cccc(C(=N)N)c1)NC(=O)OC12CC3CC(CC(C3)C1)C2.Cl [Compound 27, N-1-adamantyloxycarbonyl-L-3-amidinophenylalanine methyl ester hydrochloride] |  | only capable of recognizing the L-enantiomer | almost identical affinity |  |
| Cl.N=C(N)c1cccc(CC(NC(=O)OC23CC4CC(CC(C4)C2)C3)C(=O)O)c1 (racemic) [Compound 15, N-1-adamantyloxylcarbonyl-D,L-3-amidinophenylalanine hydrochloride] | does not show any important differences |  |  |  |
| N=C(N)c1cccc(C[C@@H](NC(=O)NC23CC4CC(CC(C4)C2)C3)C(=O)NCCc2ccccc2)c1 [Compound 32, N-(1-adamantylaminocarbonyl)-D-3-amidinophenylalanine-(2-phenyl)-1-ethylamide] | even more powerful inhibitory effect |  |  | factor by which FXa is inhibited better than by compound 31 (factor Xa [2]; relative to compound 31): 3 |
| COC(=O)[C@@H](Cc1cccc(C(=N)N)c1)NC(=O)OC12CC3CC(CC(C3)C1)C2.Cl [Compound 28, N-1-adamantyloxycarbonyl-D-3-amidinophenylalanine methyl ester hydrochloride] |  | only capable of recognizing the L-enantiomer | almost identical affinity | pKi (factor Xa [2]): 6.41; factor Xa activity of the D-enantiomer relative to the L-enantiomer 27 (factor Xa [2]; compound 28 versus compound 27): about 10 times |
| Cl.N=C(N)c1cccc(CC(NC(=O)OC23CC4CC(CC(C4)C2)C3)C(=O)N2CCCCC2)c1 [Compound 17, N-1-adamantyloxycarbonyl-D,L-3-amidinophenylalanine piperidide hydrochloride] | does not show any important differences |  |  |  |

— patent US7038074B2, “Arginine mimetics as factor Xa inhibitors” (Wilex AG, priority 2000, dated 2006)
